Source: paper PMC11483813, “Bombesin-Targeted Delivery of β-Carboline-Based Ir(III) and Ru(II) Photosensitizers for a Selective Photodynamic Therapy of Prostate Cancer” (Inorganic Chemistry, 2024)

Legend:
[1] = Self-aggregation study (Lambert-Beer law, UV-vis); type: physicochemical; details: H2O:DMSO (99:1), 1 to 40 μM, absorbance at 417 nm
Experimental: The possible aggregation properties (self-assembly behavior) were investigated for the lipophilic derivative Ir-Me through the respective analysis of the Lambert–Beer law using UV–vis spectroscopy in H2O:DMSO (99:1). More specifically, the absorbance of Ir-Me at λ = 417 nm was plotted versus concentration in the range between 1 and 40 μM. An excellent linear fitting was obtained confirming that there is no significant deviation from the Lambert–Beer law (Figures S57 and S58).

[2] = tested on: PC-3 cells; test: Intracellular ROS generation (H2DCFDA, flow cytometry); type: cell-based, human; details: IC50,light 4 h, blue light 1 h
Experimental: The photocytotoxic effects of the complexes and metallopeptides were further elucidated by evaluating their ability to photogenerate ROS at the cellular level. PC-3 cells were treated with the compounds at the respective IC50,light and irradiated with blue light. Subsequently, ROS generation was measured using the 2′,7′-dichlorodihydrofluorescein diacetate (H2DCFDA) probe, which diffuses into cells and is oxidized by ROS to produce a green fluorescent signal. […] Nevertheless, to ascertain the potential contributions of other ROS to the photocytotoxic activity, the capacity of the compounds to undergo type I PDT processes, resulting in the production of superoxide anions (O2^•–), was examined using a specific fluorescent probe that emits an orange signal upon interaction with this radical. […]
Figure 9 Intracellular ROS generation. […] The elevation of general ROS (A) and superoxide anion (B) levels was determined with specific probes by flow cytometry. […]
PC-3 cells were seeded at a density of 100000 cells per well in 12-well plates and incubated overnight. […] Cells were subsequently harvested by trypsinization, and the median fluorescence emission of 10000 cells was measured using a Novocyte flow cytometer equipped with NovoExpress software. The fluorescence fold increase relative to untreated control cells was calculated. […]

[3] = Photocatalytic singlet oxygen generation (ABDA probe); type: physicochemical; details: H2O:DMSO (1:1), blue light 460 nm, rose bengal as reference
From the text: Singlet oxygen is thought to be the main cytotoxic species in type II PDT processes. Therefore, we determined the ability of Ir-Me and Ru-Me to generate ^1O2 under photocatalytic conditions, as illustrative examples of our PSs. As shown in Figures 6 and S51, we monitored by means of UV–vis spectroscopy the oxidation of 9,10-anthracenediyl bis(methylene)dimalonic acid (ABDA, 8x 10^–5 M) in the presence of atmospheric oxygen, using Ir-Me (10^–5 M) as the PS and H2O:DMSO (1:1) as the solvent system under blue light exposure (λir = 460 nm). […] Moreover, the singlet oxygen quantum yield values (ΦΔ) of Ir-Me and Ru-Me were determined using rose bengal (ΦΔ = 0.75) as the reference. […]
an integrating sphere. For the determination of the luminescence lifetime, the fluorescence decay was measured on a FLS980 spectrofluorometer equipped with a TSCPC laser (Ir(III) complexes: λ ex = 405 nm; Ru(II) complexes: λ ex = 450 nm) and a REDPMT detector. The F980 spectrometer operating software was used to collect and process luminescence lifetime data.
Photostability of Ir(III) and Ru(II) complexes. The photostability of Ir(III) or Ru(II) complexes was monitored by 1H RMN. […]
Singlet oxygen generation. The capacity of Ir-Me and Ru-Me to generate singlet oxygen ( 1O2) was determined by an indirect method using 9,10-anthracenediyl-bis(methylene) dimalonic acid (ABDA) as a probe. […]

SMILES: COC(=O)/C=C/c1ccc(-c2nccc3c4ccccc4n(C)c23)nc1.[Cl-].[Ir+3].[c-]1ccccc1-c1ccccn1.[c-]1ccccc1-c1ccccn1 [Ir-Me]
- self-aggregation [1]: does not form aggregates
- ROS levels, fold increase versus control cells [2]: 4.5 fold
- singlet oxygen quantum yield (ΦΔ) [3]: 4%
